Data as given in ChEMBL document CHEMBL1828557, “Biophysical and physicochemical methods differentiate highly ligand-efficient human D-amino acid oxidase inhibitors” (Eur J Med Chem, 2011).
≈ marks a conversion by molar mass, not a printed value.

What was measured:
D-aspartate oxidase = target: T1, D-aspartate oxidase (Bos taurus, UniProt P31228); assay: Inhibition of bovine recombinant DASPO expressed in Escherichia coli preincubated for 15 mins by fluorescence assay
T1 sequence (P31228 whole entry): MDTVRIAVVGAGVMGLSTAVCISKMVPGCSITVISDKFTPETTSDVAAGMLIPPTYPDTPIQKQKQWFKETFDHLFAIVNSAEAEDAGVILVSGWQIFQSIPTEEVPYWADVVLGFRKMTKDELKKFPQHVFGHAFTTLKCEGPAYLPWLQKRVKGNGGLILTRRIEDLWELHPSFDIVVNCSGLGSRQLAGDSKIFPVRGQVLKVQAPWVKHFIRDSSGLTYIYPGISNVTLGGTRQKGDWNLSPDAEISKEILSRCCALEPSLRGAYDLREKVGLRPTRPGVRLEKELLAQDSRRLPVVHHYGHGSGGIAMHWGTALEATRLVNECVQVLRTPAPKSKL

[1] = Dissociation constant, pKa of the compound by dip probe absorption spectroscopy technique; assay type: physicochemical
[2] = Octanol-water partition coefficient, log P of the neutral compound by pH-metric method; assay type: physicochemical
[3] = Thermodynamic solubility of the compound in phosphate buffer at pH 7.4 after 24 hrs by HPLC analysis; assay type: physicochemical; settings: read-out: Therm_solubility
[4] = Kinetic solubility of the compound in 0.01 M phosphate buffered saline at pH 7.4 assessed as minimum solubility after 2 hrs; assay type: physicochemical; settings: read-out: Kinetic_solubility
[5] = Kinetic solubility of the compound in 0.01 M phosphate buffered saline at pH 7.4 assessed as maximum solubility after 2 hrs; assay type: physicochemical; settings: read-out: Kinetic_solubility
[6] = Intrinsic clearance in human liver microsomes; assay type: ADME, Microsome
[7] = Cmax in Wistar rat brain at 10 mg/kg, po; assay type: ADME, organism-based; set-up: dose 10 mg/kg, route oral
[8] = Cmax in Swiss mouse brain at 10 mg/kg, po; assay type: ADME, organism-based; set-up: dose 10 mg/kg, route oral
[9] = Oral bioavailability (0 to last) in Wistar rat plasma at 10 mg/kg; assay type: ADME, organism-based
[10] = Oral bioavailability (0 to last) in Swiss mouse plasma at 10 mg/kg; assay type: ADME, organism-based
[11] = Tmax in Wistar rat brain at 10 mg/kg, po; assay type: ADME, organism-based; set-up: dose 10 mg/kg, route oral
[12] = Tmax in Swiss mouse brain at 10 mg/kg, po; assay type: ADME, organism-based; set-up: dose 10 mg/kg, route oral
[13] = Volume of distribution in Wistar rat plasma at 1 mg/kg, iv; assay type: ADME, organism-based; set-up: dose 1 mg/kg, route intravenous
[14] = Volume of distribution in Swiss mouse plasma at 1 mg/kg, iv; assay type: ADME, organism-based; set-up: dose 1 mg/kg, route intravenous
[15] = Plasma clearance in Wistar rat plasma at 1 mg/kg, iv; assay type: ADME, organism-based; set-up: dose 1 mg/kg, route intravenous
[16] = Plasma clearance in Swiss mouse plasma at 1 mg/kg, iv; assay type: ADME, organism-based; set-up: dose 1 mg/kg, route intravenous
[17] = target: Voltage-gated inwardly rectifying potassium channel KCNH2 (Homo sapiens, UniProt Q12809); assay: Inhibition of human ERG expressed in HEK293 cells by whole cell voltage patch clamp technique; assay type: cell-based
Brain [18] = assay: AUC (0 to last) in Wistar rat brain at 10 mg/kg, po; assay type: ADME, organism-based; set-up: dose 10 mg/kg, route oral, time 0 - last; settings: in vivo
Brain [19] = assay: AUC (0 to last) in Swiss mouse brain at 10 mg/kg, po; assay type: ADME, organism-based; set-up: time 0 - last, dose 10 mg/kg, route oral; settings: in vivo
[20] = Ratio of drug level (0 to last) in brain to plasma in Wistar rat at 10 mg/kg, po; assay type: ADME, organism-based; set-up: dose 10 mg/kg, route oral; settings: brain and plasma, read-out: BPR
[21] = Ratio of drug level (0 to last) in brain to plasma in Swiss mouse at 10 mg/kg, po; assay type: ADME, organism-based; set-up: dose 10 mg/kg, route oral; settings: brain and plasma, read-out: BPR
[22] = Terminal half life in Wistar rat brain at 10 mg/kg, po; assay type: ADME, organism-based; set-up: dose 10 mg/kg, route oral; settings: read-out: beta t1/2 (converted)
[23] = Terminal half life in Swiss mouse brain at 10 mg/kg, po; assay type: ADME, organism-based; set-up: dose 10 mg/kg, route oral; settings: read-out: beta t1/2 (converted)
D-amino-acid oxidase [24] = target: T2, D-amino-acid oxidase (Homo sapiens, UniProt P14920)
Target sequence in this assay (P14920 whole entry, looked up): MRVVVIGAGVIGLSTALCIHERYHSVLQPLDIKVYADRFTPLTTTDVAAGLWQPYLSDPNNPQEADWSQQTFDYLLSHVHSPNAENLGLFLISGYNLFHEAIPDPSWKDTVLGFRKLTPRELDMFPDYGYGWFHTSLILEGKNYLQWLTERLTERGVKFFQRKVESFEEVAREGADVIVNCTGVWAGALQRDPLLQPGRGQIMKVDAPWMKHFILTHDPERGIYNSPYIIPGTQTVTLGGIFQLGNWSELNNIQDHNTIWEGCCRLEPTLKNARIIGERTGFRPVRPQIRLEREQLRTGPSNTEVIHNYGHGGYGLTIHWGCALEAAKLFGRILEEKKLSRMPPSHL

D-amino-acid oxidase [25] = target: T2, D-amino-acid oxidase; assay: Inhibition of human recombinant DAAO expressed in Escherichia coli assessed as H2O2 production from D-serine degradation after 30 mins by fluorescence assay
Target sequence in this assay (P14920 whole entry): as the sequence (P14920 whole entry, looked up) above

D-amino-acid oxidase [26] = target: T2, D-amino-acid oxidase; assay: Inhibition of human DAAO
Target sequence in this assay (P14920 whole entry): as the sequence (P14920 whole entry, looked up) above

D-amino-acid oxidase [27] = target: T2, D-amino-acid oxidase; assay: Binding affinity to human recombinant DAAO by isothermal titration calorimeter analysis
Target sequence in this assay (P14920 whole entry): as the sequence (P14920 whole entry, looked up) above

D-amino-acid oxidase [28] = target: T2, D-amino-acid oxidase; assay: Binding affinity to human recombinant DAAO by kinetic study scintillation proximity assay
Target sequence in this assay (P14920 whole entry): as the sequence (P14920 whole entry, looked up) above

[29] = Cmax in Wistar rat brain at 30 mg/kg, po; assay type: ADME, organism-based; set-up: dose 30 mg/kg, route oral
[30] = Cmax in Swiss mouse brain at 30 mg/kg, po; assay type: ADME, organism-based; set-up: dose 30 mg/kg, route oral
Brain [31] = assay: AUC (0 to last) in Wistar rat brain at 30 mg/kg, po; assay type: ADME, organism-based; set-up: time 0 - last, dose 30 mg/kg, route oral; settings: in vivo
Brain [32] = assay: AUC (0 to last) in Swiss mouse brain at 30 mg/kg, po; assay type: ADME, organism-based; set-up: time 0 - last, dose 30 mg/kg, route oral; settings: in vivo
[33] = Ratio of drug level (0 to last) in brain to plasma in Wistar rat at 30 mg/kg, po; assay type: ADME, organism-based; set-up: dose 30 mg/kg, route oral; settings: brain and plasma, read-out: BPR
[34] = Ratio of drug level (0 to last) in brain to plasma in Swiss mouse at 30 mg/kg, po; assay type: ADME, organism-based; set-up: dose 30 mg/kg, route oral; settings: brain and plasma, read-out: BPR
[35] = Oral bioavailability (0 to last) in Wistar rat plasma at 30 mg/kg; assay type: ADME, organism-based
[36] = Oral bioavailability (0 to last) in Swiss mouse plasma at 30 mg/kg; assay type: ADME, organism-based
[37] = Tmax in Wistar rat brain at 30 mg/kg, po; assay type: ADME, organism-based; set-up: dose 30 mg/kg, route oral
[38] = Tmax in Swiss mouse brain at 30 mg/kg, po; assay type: ADME, organism-based; set-up: dose 30 mg/kg, route oral
[39] = Terminal half life in Wistar rat brain at 30 mg/kg, po; assay type: ADME, organism-based; set-up: dose 30 mg/kg, route oral; settings: read-out: beta t1/2 (converted)
[40] = Terminal half life in Swiss mouse brain at 30 mg/kg, po; assay type: ADME, organism-based; set-up: dose 30 mg/kg, route oral; settings: read-out: beta t1/2 (converted)
[41] = Volume of distribution in Wistar rat plasma at 10 mg/kg, iv; assay type: ADME, organism-based; set-up: dose 10 mg/kg, route intravenous
[42] = Volume of distribution in Swiss mouse plasma at 10 mg/kg, iv; assay type: ADME, organism-based; set-up: dose 10 mg/kg, route intravenous
[43] = Plasma clearance in Wistar rat plasma at 10 mg/kg, iv; assay type: ADME, organism-based; set-up: dose 10 mg/kg, route intravenous
[44] = Plasma clearance in Swiss mouse plasma at 10 mg/kg, iv; assay type: ADME, organism-based; set-up: dose 10 mg/kg, route intravenous

Sequence of Voltage-gated inwardly rectifying potassium channel KCNH2 (Q12809 whole entry): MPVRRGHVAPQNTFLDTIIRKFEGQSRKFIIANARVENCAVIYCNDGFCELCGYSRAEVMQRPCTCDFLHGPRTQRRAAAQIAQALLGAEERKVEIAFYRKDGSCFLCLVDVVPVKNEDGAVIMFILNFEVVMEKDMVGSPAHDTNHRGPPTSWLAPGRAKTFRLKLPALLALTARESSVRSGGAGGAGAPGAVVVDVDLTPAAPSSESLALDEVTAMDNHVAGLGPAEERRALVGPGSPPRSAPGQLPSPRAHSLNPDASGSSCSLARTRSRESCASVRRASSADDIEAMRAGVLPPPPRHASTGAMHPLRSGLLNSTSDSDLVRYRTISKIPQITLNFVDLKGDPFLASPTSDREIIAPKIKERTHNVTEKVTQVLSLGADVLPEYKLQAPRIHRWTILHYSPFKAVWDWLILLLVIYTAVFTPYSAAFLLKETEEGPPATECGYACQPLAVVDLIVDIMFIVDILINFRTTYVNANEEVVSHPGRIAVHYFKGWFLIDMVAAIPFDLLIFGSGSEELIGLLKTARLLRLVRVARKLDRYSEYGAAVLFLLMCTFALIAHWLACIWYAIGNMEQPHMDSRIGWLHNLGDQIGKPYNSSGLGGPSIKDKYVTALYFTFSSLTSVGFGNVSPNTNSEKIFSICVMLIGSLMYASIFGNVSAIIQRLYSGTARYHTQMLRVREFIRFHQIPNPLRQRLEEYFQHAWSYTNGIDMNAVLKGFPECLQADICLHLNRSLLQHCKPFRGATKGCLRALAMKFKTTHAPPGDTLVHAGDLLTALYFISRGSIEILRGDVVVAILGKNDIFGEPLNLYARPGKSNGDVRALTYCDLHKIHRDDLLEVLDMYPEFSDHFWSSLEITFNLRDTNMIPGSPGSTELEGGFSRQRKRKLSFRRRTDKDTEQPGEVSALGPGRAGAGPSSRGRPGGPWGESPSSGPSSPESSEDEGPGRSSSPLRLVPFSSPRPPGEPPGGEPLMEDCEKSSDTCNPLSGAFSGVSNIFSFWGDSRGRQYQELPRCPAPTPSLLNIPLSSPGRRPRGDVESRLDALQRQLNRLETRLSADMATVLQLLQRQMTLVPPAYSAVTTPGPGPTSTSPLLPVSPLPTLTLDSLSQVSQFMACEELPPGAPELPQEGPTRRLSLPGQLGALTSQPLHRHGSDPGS

SMILES | IC50 (D-aspartate oxidase) [nM] | pKa [1] | logP [2] | solubility thermodynamic at 24 h [3] [µM] | solubility kinetic at 2 h [4] [µM] | solubility kinetic at 2 h [5] [µM] | Cmax [7] [ng/mL] | Cmax [8] [ng/mL] | bioavailability [9] [%] | bioavailability [10] [%] | Tmax [11] [min] | Tmax [12] [min] | Vd [13] [L/kg] | Vd [14] [L/kg] | clearance [15] [mL/min/kg] | clearance [16] [mL/min/kg] | further results
O=c1[nH]c2ccc(F)c(Cl)c2cc1O | > 10000 | 7.33 | 2.7 | 71 (≈ 15.2 µg/mL) | 3 (≈ 0.641 µg/mL) | 65 (≈ 13.9 µg/mL) | 17.9 | 12.1 | 2 | 3 | 30 | 15 | 0.3 | 0.5 | 28 | 45 | microsomal CLint [6]: 183 µL/min/mg
O=C(O)c1cc2occc2[nH]1 | > 10000 | 4.09 | 1.56 | 428 (≈ 64.7 µg/mL) | 100 (≈ 15.1 µg/mL) | > 100 | 889 | 487 | 52 | 42 | 30 | 15 | 0.4 | 0.8 | 4 | 15 | IC50 [17]: > 10000 nM; AUClast (Brain [18]): 1520 ng·h/mL; AUClast (Brain [19]): 371 ng·h/mL; Kp [20]: 0.08; Kp [21]: 0.08; half-life [22]: 120 min; half-life [23]: 30 min; T1/2 (D-amino-acid oxidase [24]): 10 min
Cc1cc(C(=O)O)n[nH]1 | > 10000 | 3.59 | 0.45 | > 460 | 100 (≈ 12.6 µg/mL) | > 100 |  |  |  |  |  |  |  |  |  |  | IC50 (D-amino-acid oxidase [25]): 473 nM; IC50 (D-amino-acid oxidase [26]): 910 nM; Kd (D-amino-acid oxidase [27]): 617 nM; Kd (D-amino-acid oxidase [28]): 900 nM; Cmax [29]: 112 ng/mL; Cmax [30]: 359 ng/mL; AUClast (Brain [31]): 631 ng·h/mL; AUClast (Brain [32]): 831 ng·h/mL; Kp [33]: 0.04; Kp [34]: 0.1; bioavailability [35]: 97%; bioavailability [36]: 33%; Tmax [37]: 60 min; Tmax [38]: 30 min; half-life [39]: 180 min; half-life [40]: 60 min; Vd [41]: 3.5 L/kg; Vd [42]: 0.4 L/kg; clearance [43]: 11 mL/min/kg; clearance [44]: 10 mL/min/kg
